From the supplement of paper PMC8960247
Where a name gives a salt, the structure may show the parent alone. ± gives the standard error.

Assays:
621-103 (TSC2-rescued) = assay: relative viability vs DMSO; higher = less cytotoxic; conditions: serum: 10% FBS, 72 h
621-102 (TSC2-deficient) = assay: as above; conditions: serum: 10% FBS, 72 h
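Note: immortalized renal angiomyolipoma cells stably carrying empty vector or TSC2, dosed in 384-well plates in DMEM, viability normalized to vehicle-treated wells within each plate.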

Row | Structure (SMILES) | relative viability (621-103 (TSC2-rescued); 0.0001 µM) | relative viability (621-103 (TSC2-rescued); 0.001 µM) | relative viability (621-103 (TSC2-rescued); 0.01 µM) | relative viability (621-103 (TSC2-rescued); 0.1 µM) | relative viability (621-103 (TSC2-rescued); 1 µM) | relative viability (621-103 (TSC2-rescued); 10 µM) | relative viability (621-102 (TSC2-deficient); 0.0001 µM) | relative viability (621-102 (TSC2-deficient); 0.001 µM) | relative viability (621-102 (TSC2-deficient); 0.01 µM) | relative viability (621-102 (TSC2-deficient); 0.1 µM) | relative viability (621-102 (TSC2-deficient); 1 µM) | relative viability (621-102 (TSC2-deficient); 10 µM)
1 | CCCCCCOC(=O)NC(=N)c1ccc(NCc2nc3cc(C(=O)N(CCC(=O)OCC)c4ccccn4)ccc3n2C)cc1 [BIBR-1048] | 82.2 ± 13% | 80.5 ± 6.2% | 88.7 ± 4.1% | 92.9 ± 8.5% | 72.9 ± 5.4% | 69.4 ± 1.5% | 78.58 ± 0.35% | 83.8 ± 4.3% | 90.2 ± 3% | 96.8 ± 4.4% | 107 ± 6.2% | 87.6 ± 3%
2 | CN(C)C/C=C/C(=O)Nc1cc2c(Nc3ccc(F)c(Cl)c3)ncnc2cc1O[C@H]1CCOC1 [BIBW2992 )Tovok)] | 98.7 ± 5.2% | 106.2 ± 1% | 103 ± 6% | 100.3 ± 0.78% | 78.3 ± 2.9% | 7.915 ± 0.042% | 115 ± 3% | 108.3 ± 0.98% | 110 ± 1.6% | 108 ± 3.2% | 91.85 ± 0.61% | 13.8 ± 1.6%
3 | COc1c(C)cnc(Cn2cnc3c(Cl)nc(N)nc32)c1C [BIIB021] | 108.8 ± 0.79% | 103 ± 1.5% | 104.1 ± 0.83% | 75 ± 2.9% | 5.92 ± 0.87% | 4.56 ± 0.052% | 107 ± 1.3% | 120 ± 2.2% | 117 ± 4.1% | 79 ± 2.7% | 33.3 ± 1.2% | 21.1 ± 0.83%
4 | Cc1ccc(-n2nc(C(C)(C)C)cc2NC(=O)Nc2ccc(OCCN3CCOCC3)c3ccccc23)cc1 [BIRB 796] | 98 ± 1.9% | 98.8 ± 1.3% | 97.2 ± 1% | 98.7 ± 1.7% | 94.18 ± 0.14% | 95.5 ± 1.8% | 104 ± 3.1% | 107 ± 3.4% | 98.8 ± 4.4% | 103.8 ± 0.27% | 103 ± 4.7% | 104 ± 1.4%
5 | Nc1cc(C(F)(F)F)c(-c2cc(N3CCOCC3)nc(N3CCOCC3)n2)cn1 [BKM120 (NVP-BKM120)] | 102 ± 2.4% | 112 ± 2.3% | 109.19 ± 0.024% | 104 ± 5% | 58.5 ± 2.1% | 21 ± 0.97% | 97 ± 2% | 102 ± 3.6% | 95.9 ± 2.2% | 92.9 ± 2.6% | 71.9 ± 3.6% | 20.01 ± 0.19%
6 | COc1ccccc1N1CCN(CCN2C(=O)CC3(CCCC3)CC2=O)CC1 [BMY 7378] | 96.7 ± 4.4% | 96.58 ± 0.1% | 99.07 ± 0.31% | 98.2 ± 1.8% | 105 ± 1.9% | 105 ± 1.3% | 104.1 ± 0.41% | 110 ± 3.7% | 100 ± 3.8% | 104.4 ± 0.88% | 105 ± 0.26% | 95.3 ± 2.3%
7 | CC(C)c1cnn2c(NCc3ccccc3)cc(NCCCCCCN)nc12 [BS-181] | 101 ± 2.2% | 101.1 ± 1% | 99.7 ± 1.7% | 88.3 ± 1.2% | 100 ± 1.4% | 55.7 ± 5.2% | 112 ± 2.3% | 107 ± 3.7% | 106.4 ± 0.99% | 94.74 ± 0.88% | 116 ± 2.2% | 81.2 ± 7.1%
8 | NC(=O)c1ccc(I)c([N+](=O)[O-])c1 [BSI-201] | 108 ± 2.5% | 103 ± 1.1% | 105.9 ± 0.65% | 102 ± 1.9% | 100.5 ± 0.3% | 102.3 ± 0.13% | 136 ± 2.7% | 130 ± 0.89% | 126.6 ± 0.33% | 116.12 ± 0.099% | 113.7 ± 0.28% | 110 ± 3.1%
9 | O=C(O)[C@H]1O[C@@H](Oc2cc3oc(-c4ccccc4)cc(=O)c3c(O)c2O)[C@H](O)[C@@H](O)[C@@H]1O [Baicalin] | 113.5 ± 0.92% | 106 ± 1.2% | 118.8 ± 1.1% | 106 ± 4.6% | 105 ± 1.2% | 107.9 ± 0.63% | 97.45 ± 0.88% | 108 ± 3.8% | 106 ± 2.6% | 106 ± 1.6% | 110 ± 1.3% | 98.5 ± 1.3%
10 | CCOC(=O)[C@H](CCc1ccccc1)N[C@H]1CCc2ccccc2N(CC(=O)O)C1=O [Benazepril HCl] | 82.5 ± 11% | 89.7 ± 11% | 89.6 ± 6.1% | 98.8 ± 6.3% | 95.2 ± 4.9% | 89.9 ± 6.7% | 68 ± 2.9% | 82 ± 2.6% | 83 ± 5.2% | 81.1 ± 7.4% | 74.6 ± 9.9% | 69.8 ± 4.9%
11 | NC(CO)C(=O)NNCc1ccc(O)c(O)c1O (stereo not drawn) [Benserazide HCl] | 108.8 ± 0.38% | 104 ± 2.7% | 110 ± 2.1% | 109.5 ± 0.88% | 114 ± 2.6% | 105 ± 3.1% | 98.1 ± 5.3% | 93.8 ± 2.6% | 103 ± 3.5% | 107 ± 1.3% | 106 ± 2.3% | 101 ± 1.4%
12 | CC(C[N+](C)(C)C)OC(N)=O (stereo not drawn) [Bethanechol chloride] | 96.28 ± 0.78% | 102 ± 1.9% | 105 ± 1.4% | 105 ± 0.93% | 103.7 ± 0.9% | 101.6 ± 0.12% | 103 ± 3.5% | 105 ± 3.1% | 104 ± 2.9% | 103.4 ± 0.49% | 100 ± 1.8% | 101 ± 3%
13 | CC(O)(CS(=O)(=O)c1ccc(F)cc1)C(=O)Nc1ccc(C#N)c(C(F)(F)F)c1 (stereo not drawn) [Bicalutamide (Casodex)] | 105.2 ± 0.55% | 102 ± 1.1% | 101.3 ± 0.41% | 102 ± 1.6% | 102.5 ± 0.88% | 102 ± 1.1% | 126 ± 1.3% | 119 ± 3.4% | 112 ± 1.2% | 102 ± 2.8% | 110.6 ± 0.79% | 112 ± 1.8%
14 | COc1cc(Nc2c(C#N)cnc3cc(OCCCN4CCN(C)CC4)c(OC)cc23)c(Cl)cc1Cl [Bosutinib (SKI-606)] | 85.39 ± 0.5% | 93.6 ± 3% | 94.5 ± 6% | 90.2 ± 6.4% | 69.5 ± 4% | 1.86 ± 0.19% | 94.6 ± 3.7% | 109 ± 3.2% | 92.7 ± 6.8% | 103 ± 7.9% | 64.3 ± 7.2% | 3.18 ± 0.88%
15 | CCCCN1CCCCC1C(=O)Nc1c(C)cccc1C (stereo not drawn) [Bupivacaine HCl (marcain)] | 89.4 ± 2.3% | 102 ± 4.2% | 98.8 ± 1.7% | 104 ± 4.7% | 94.37 ± 0.47% | 98.415 ± 0.003% | 97.4 ± 2.2% | 104 ± 4.4% | 93.47 ± 0.53% | 93.5 ± 1.1% | 94.1 ± 1.3% | 100 ± 2.3%
16 | CC[C@H](Nc1ncnc2[nH]cnc12)c1nc2cccc(F)c2c(=O)n1-c1ccccc1 [CAL-101] | 116 ± 3.1% | 109 ± 3.1% | 114 ± 1.2% | 104 ± 3.4% | 109 ± 2% | 92.7 ± 4.7% | 104.38 ± 0.033% | 117.5 ± 0.72% | 111 ± 5.8% | 106 ± 3% | 104.1 ± 0.72% | 92.41 ± 0.24%
17 | O=C(O)c1ccc2c(c1)nc(Nc1cccc(Cl)c1)c1ccncc12 [CX-4945] | 109 ± 5.8% | 106.3 ± 0.77% | 111 ± 7.9% | 106 ± 3% | 104 ± 3.2% | 72.54 ± 0.24% | 95 ± 3.3% | 93.1 ± 1.6% | 102 ± 2.2% | 103.8 ± 0.2% | 101 ± 2.9% | 80.4 ± 0.94%
18 | Cc1nc(N)sc1-c1ccnc(Nc2ccc(N3CCOCC3)cc2)n1 [CYC116] | 91.6 ± 5.4% | 94.51 ± 0.42% | 101.6 ± 0.83% | 95.1 ± 4.3% | 72 ± 3.4% | 28.3 ± 0.44% | 90.7 ± 2.7% | 102 ± 4.6% | 113.07 ± 0.029% | 100.4 ± 0.47% | 93.08 ± 0.77% | 50.55 ± 0.13%
19 | CC[C@@]1(O)C(=O)OCc2c1cc1n(c2=O)Cc2cc3ccccc3nc2-1 [Camptothecine] | 100.6 ± 0.37% | 100.7 ± 0.47% | 96.3 ± 4.5% | 44.6 ± 2.1% | 10.3 ± 0.36% | 17.79 ± 0.099% | 104.3 ± 0.41% | 106 ± 1.9% | 101 ± 2.4% | 57.8 ± 2.9% | 12 ± 0.68% | 19.5 ± 1.7%
